Laboratory results from patent US20240016784A1, “Y BOX BINDING PROTEIN 1 INHIBITORS” (Oregon Health & Science University, priority 2020, published 2024).

Tests used:
Assay in all cases: NCI-60 cell line panel
Type in all cases: cell-based
TK-10 = settings: Homo sapiens, 48 hours
Excerpt: (§1) FIG. 17: Assay of SU056 in NCI-60 cell line panel.

NCI-H23 = settings: Homo sapiens, 48 hours
Excerpt: as §1

UACC-62 = settings: Homo sapiens, 48 hours
Excerpt: as §1

SF-295 = settings: Homo sapiens, 48 hours
Excerpt: as §1

CAKI-1 = settings: Homo sapiens, 48 hours
Excerpt: as §1

SF-268 = settings: Homo sapiens, 48 hours
Excerpt: as §1

PC-3 = settings: Homo sapiens, 48 hours
Excerpt: as §1

MOLT-4 = settings: Homo sapiens, 48 hours
Excerpt: as §1

OVCAR-5 = settings: Homo sapiens, 48 hours
Excerpt: as §1

SK-MEL-2 = settings: Homo sapiens, 48 hours
Excerpt: as §1

NCI-H460 = settings: Homo sapiens, 48 hours
Excerpt: as §1

SK-OV-3 = settings: Homo sapiens, 48 hours
Excerpt: as §1

ACHN = settings: Homo sapiens, 48 hours
Excerpt: as §1

NCI-H522 = settings: Homo sapiens, 48 hours
Excerpt: as §1

OVCAR-8 = settings: Homo sapiens, 48 hours
Excerpt: as §1

786-0 = settings: Homo sapiens, 48 hours
Excerpt: as §1

IGROV1 = settings: Homo sapiens, IGROV-1, 48 hours
Excerpt: as §1

RPMI-8226 = settings: Homo sapiens, 48 hours
Excerpt: as §1

COLO 205 = settings: Homo sapiens, 48 hours
Excerpt: as §1

SW-620 = settings: Homo sapiens, 48 hours
Excerpt: as §1

SNB-19 = settings: Homo sapiens, 48 hours
Excerpt: as §1

LOX IMVI = settings: Homo sapiens, 48 hours
Excerpt: as §1

HCC-2998 = settings: Homo sapiens, 48 hours
Excerpt: as §1

UACC-257 = settings: Homo sapiens, 48 hours
Excerpt: as §1

SNB-75 = settings: Homo sapiens, 48 hours
Excerpt: as §1

A498 = settings: Homo sapiens, 48 hours
Excerpt: as §1

RXF 393 = settings: Homo sapiens, 48 hours
Excerpt: as §1

U251 = settings: Homo sapiens, U-251, 48 hours
Excerpt: as §1

KM12 = settings: Homo sapiens, 48 hours
Excerpt: as §1

HOP-92 = settings: Homo sapiens, 48 hours
Excerpt: as §1

T-47D = settings: Homo sapiens, T47D, 48 hours
Excerpt: as §1

K-562 = settings: Homo sapiens, K562, 48 hours
Excerpt: as §1

UO-31 = settings: Homo sapiens, 48 hours
Excerpt: as §1

NCI-H322M = settings: Homo sapiens, 48 hours
Excerpt: as §1

MCF7 = settings: Homo sapiens, 48 hours
Excerpt: as §1

SF-539 = settings: Homo sapiens, 48 hours
Excerpt: as §1

NCI/ADR-RES = settings: Homo sapiens, 48 hours
Excerpt: as §1

M14 = settings: Homo sapiens, 48 hours
Excerpt: as §1

DU-145 = settings: Homo sapiens, 48 hours
Excerpt: as §1

MDA-MB-435 = settings: Homo sapiens, 48 hours
Excerpt: as §1

SR = settings: Homo sapiens, 48 hours
Excerpt: as §1

SK-MEL-5 = settings: Homo sapiens, 48 hours
Excerpt: as §1

EKVX = settings: Homo sapiens, 48 hours
Excerpt: as §1

## O=C1OCC2=C1C(c1cccc(F)c1)c1cc3c(cc1N2CCO)OCO3 (stereo not shown) [SU056, 9-(3-fluorophenyl)-5-(2-hydroxyethyl)-6,9-dihydro-[1,3]dioxolo[4,5-g]furo[3,4-b]quinolin-8(5H)-one]
TK-10
  IC50: 15600 nM
NCI-H23
  IC50: 3960 nM
UACC-62
  IC50: 2250 nM
SF-295
  IC50: 1200 nM
CAKI-1
  IC50: 1240 nM
SF-268
  IC50: 3200 nM
PC-3
  IC50: 1460 nM
MOLT-4
  IC50: 3020 nM
OVCAR-5
  IC50: 4330 nM
SK-MEL-2
  IC50: 2460 nM
NCI-H460
  IC50: 2080 nM
SK-OV-3
  IC50: 1730 nM
ACHN
  IC50: 3030 nM
NCI-H522
  IC50: 2590 nM
OVCAR-8
  IC50: 3180 nM
786-0
  IC50: 1860 nM
IGROV1
  IC50: 4190 nM
RPMI-8226
  IC50: 2280 nM
COLO 205
  IC50: 1460 nM
SW-620
  IC50: 1650 nM
SNB-19
  IC50: 3000 nM
LOX IMVI
  IC50: 2350 nM
HCC-2998
  IC50: 7060 nM
UACC-257
  IC50: 50000 nM
SNB-75
  IC50: 820 nM
A498
  IC50: 1110 nM
RXF 393
  IC50: 1510 nM
U251
  IC50: 2500 nM
KM12
  IC50: 1480 nM
HOP-92
  IC50: 3100 nM
T-47D
  IC50: 2180 nM
K-562
  IC50: 353 nM
UO-31
  IC50: 2880 nM
NCI-H322M
  IC50: 4010 nM
MCF7
  IC50: 1440 nM
SF-539
  IC50: 1130 nM
NCI/ADR-RES
  IC50: 2020 nM
M14
  IC50: 357 nM
DU-145
  IC50: 2710 nM
MDA-MB-435
  IC50: 187 nM
SR
  IC50: 294 nM
SK-MEL-5
  IC50: 1260 nM
EKVX
  IC50: 3030 nM
